The values that follow come from patent US20250066325A1, “DIRECTED DEGRON MOLECULES AND APPLICATIONS THEREOF” (The Brigham and Women's Hospital, Inc., priority 2021, published 2025).

Format in all cases: cell-based
The subject of test [1] is ZF degrons fused to eGFP in U2OS cells. Kind of test: Automated high-content imaging assay of ZF degron-tagged eGFP degradation (off-target profiling). To be noted: U2OS ZF degron reporter cells, 24 hours, doses 4.3 nM to 20 μM. The source says: Development and validation of an off-target profiling platform for PROTACs. To profile the ZF degradation propensity of pomalidomide and its analogs, an automated high-content imaging assay was first developed (FIG. 1A). For this platform, 23-amino acid ZF degrons of 12 ZF proteins were selected that are reportedly degraded by pomalidomide and two ZFs that are not.^2 These ZF degrons were inserted into a lentiviral degradation reporter vector (cilantro 2) to compare the fluorescence of ZF-tagged enhanced green fluorescent protein (eGFP) to untagged mCherry with high-content imaging (FIG. 1A). With this assay, wherein compounds are scanned against the 14 stable cell lines containing our tagged ZF-proteins, dose-dependent degradation of ZF degron-tagged eGFP by pomalidomide was reliably detected with a robust readout (Z-prime value of 0.8) (FIG. 5). […] Unlike mass spectrometry, this reporter-based method is not limited by cell-type-specific expression levels of analyte proteins nor by the accessibility to ZFs in the context of full-length proteins that are engaged in protein complexes. […]
The fluorescence intensity of eGFP was normalized to that of mCherry for every cell. […] The degradation score was then calculated by taking the sum of the GFP degradation fractions across all doses for each compound. […]

For the next test, the system named is MOLT4 and KELLY cells. Briefly: Global proteomic studies (TMT) of IMiDs in ZF protein-relevant cell lines. To be noted: 1 μM. The method, then:
Global proteomic studies. To validate the results from the imagining-based experiments, Applicant performed proteomics studies in two ZF protein-relevant cell lines (MOLT4 and KELLY).^26 Briefly, Applicant treated the ZF protein-relevant cells (MOLT4 and KELLY) with IMiDs or PROTACs at 1 μM concentrations, and the protein lysates were prepared from the cells were digested, and labeled using a TMT-based quantification kit. Labeled samples were subjected to LC/MS on an Orbitrap Eclipse Tribrid mass spectrometer. Applicant used the Proteome Discoverer software pipeline and identified the final hits by searching against the uniport database.

A further test deals with T1, ZFP91 (Homo sapiens, UniProt Q96JP5+Q96SW2).
T1 construct: Immunoblots for endogenous ZF proteins ZFP91 and IKZF3 in MM1.S cells; endogenous in cells; host or cells: JURKAT, MM1.S, SU-DHL-1, H2228
T1 sequence (Q96JP5 2-570 limits assumed): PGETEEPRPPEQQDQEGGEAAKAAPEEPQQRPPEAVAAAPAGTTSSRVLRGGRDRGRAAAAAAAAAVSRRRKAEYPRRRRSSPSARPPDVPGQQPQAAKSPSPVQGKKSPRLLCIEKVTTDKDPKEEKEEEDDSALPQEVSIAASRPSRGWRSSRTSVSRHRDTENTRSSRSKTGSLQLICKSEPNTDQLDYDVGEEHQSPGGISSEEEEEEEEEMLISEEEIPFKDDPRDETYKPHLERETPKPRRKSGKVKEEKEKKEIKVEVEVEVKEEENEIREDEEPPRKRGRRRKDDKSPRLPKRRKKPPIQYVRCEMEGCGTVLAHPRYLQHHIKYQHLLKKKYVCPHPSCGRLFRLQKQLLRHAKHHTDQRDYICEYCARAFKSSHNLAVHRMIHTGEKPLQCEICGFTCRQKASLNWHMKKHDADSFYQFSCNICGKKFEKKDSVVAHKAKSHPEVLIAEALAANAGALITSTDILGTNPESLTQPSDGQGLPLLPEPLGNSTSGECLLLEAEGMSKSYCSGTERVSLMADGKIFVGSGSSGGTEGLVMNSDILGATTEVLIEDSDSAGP
T1 sequence (Q96SW2 whole entry): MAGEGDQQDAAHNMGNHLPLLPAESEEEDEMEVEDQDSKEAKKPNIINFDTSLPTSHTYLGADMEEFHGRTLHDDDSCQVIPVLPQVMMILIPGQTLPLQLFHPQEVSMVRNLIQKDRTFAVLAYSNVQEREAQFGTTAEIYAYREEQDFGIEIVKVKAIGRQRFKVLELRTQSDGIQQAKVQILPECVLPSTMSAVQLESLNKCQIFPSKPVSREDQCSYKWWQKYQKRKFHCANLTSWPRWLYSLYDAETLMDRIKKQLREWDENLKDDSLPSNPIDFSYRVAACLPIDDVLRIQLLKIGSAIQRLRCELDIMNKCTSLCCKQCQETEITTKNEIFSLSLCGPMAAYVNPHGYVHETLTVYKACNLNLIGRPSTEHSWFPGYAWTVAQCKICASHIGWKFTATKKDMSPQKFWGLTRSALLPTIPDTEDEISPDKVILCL
T1 sequence (Q16531 2-1140 partner limits assumed): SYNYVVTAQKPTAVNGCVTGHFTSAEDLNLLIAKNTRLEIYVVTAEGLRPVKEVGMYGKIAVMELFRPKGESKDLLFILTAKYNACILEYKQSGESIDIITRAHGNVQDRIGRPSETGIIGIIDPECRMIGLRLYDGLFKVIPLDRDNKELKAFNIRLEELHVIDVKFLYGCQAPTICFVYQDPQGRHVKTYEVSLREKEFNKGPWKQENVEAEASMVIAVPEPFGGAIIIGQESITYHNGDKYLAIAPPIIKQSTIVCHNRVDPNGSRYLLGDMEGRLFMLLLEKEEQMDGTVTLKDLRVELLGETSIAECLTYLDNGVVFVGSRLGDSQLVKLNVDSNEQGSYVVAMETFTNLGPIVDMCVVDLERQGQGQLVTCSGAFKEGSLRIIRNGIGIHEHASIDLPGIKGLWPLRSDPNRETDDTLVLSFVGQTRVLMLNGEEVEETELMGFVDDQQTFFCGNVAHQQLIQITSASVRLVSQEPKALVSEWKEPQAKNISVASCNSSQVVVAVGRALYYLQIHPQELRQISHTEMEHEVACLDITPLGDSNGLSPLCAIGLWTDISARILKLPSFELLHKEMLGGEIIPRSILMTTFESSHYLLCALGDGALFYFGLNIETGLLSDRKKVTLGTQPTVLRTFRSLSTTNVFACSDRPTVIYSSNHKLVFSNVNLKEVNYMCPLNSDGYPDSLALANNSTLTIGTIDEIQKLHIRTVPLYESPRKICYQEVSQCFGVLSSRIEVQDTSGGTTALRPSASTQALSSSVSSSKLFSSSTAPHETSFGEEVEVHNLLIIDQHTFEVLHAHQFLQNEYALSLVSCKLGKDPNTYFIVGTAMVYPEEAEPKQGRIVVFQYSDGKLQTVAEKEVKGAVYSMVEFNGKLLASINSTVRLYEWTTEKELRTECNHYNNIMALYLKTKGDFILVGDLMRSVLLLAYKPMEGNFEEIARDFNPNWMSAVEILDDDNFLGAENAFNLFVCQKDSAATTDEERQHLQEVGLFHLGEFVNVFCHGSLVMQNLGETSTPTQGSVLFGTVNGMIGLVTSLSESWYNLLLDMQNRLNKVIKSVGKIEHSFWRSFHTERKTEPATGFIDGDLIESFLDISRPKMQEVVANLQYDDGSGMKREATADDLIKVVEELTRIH
Kind of test: Immunoblot of endogenous ZF protein ZFP91. To be noted: for off-target degradation of endogenous ZFP91 (immunoblot): dose-dependent; for degradation potency for ZFP91 compared with pomalidomide (immunoblot): MM1.S cells. The procedure:
(§1) Western blot analysis. Lysates of cells treated with different compounds were collected with ice-cold M-PER™ Mammalian Protein Extraction Reagent (ThermoFisher Scientific, 78501) with freshly added phosphatase (Sigma-Aldrich, 04906837001) and protease (Sigma-Aldrich, 04693124001) inhibitors following the manufacturer's instructions. Next, 20-50 μg of proteins were fractionated with NuPAGE™ 4-12% Bis-Tris gels (ThermoFisher Scientific, NP0335BOX) then transferred onto nitrocellulose membranes using iBot™ Transfer Stacks (ThermoFisher Scientific, IB23002) following the manufacturer's instructions. Membranes were then stained with primary antibodies in 1:1000 dilutions and secondary fluorescent antibodies in 1:3000 dilutions using iBind™ Flex Fluorescent Detection Solution Kit (ThermoFisher Scientific, SLF2019) following the manufacturer's instructions.
(§2) Primary antibodies used in this study include ZFP91 (Bethyl Laboratories, A303-245A), IKZF3/Aiolos (D1C1E) (Cell Signaling, 15103S), CRBN (D8H3S) (Cell Signaling, 71810S), ALK(D5F3) XP (Cell Signaling, 3633S), phospho-ALK (Tyr1507) (D6F1V) (Cell Signaling, 14678S), β-actin (8H10D10) Mouse mAb (Cell Signaling, 3700S). Fluorescent secondary antibodies used in this study include IRDye 680RD goat anti-mouse IgG (LI-COR Biosciences, 926-68070) and IRDye 800CW goat anti-rabbit IgG (LI-COR Biosciences, 926-32211). Western blot detection was performed using an Odyssey CLx Imaging System (LI-COR Biosciences). Quantification of the relative area and density values of western blot bands were carried out using ImageJ v2.1.0 following the ImageJ User Guide for gel analysis (https://imagej.nih.gov/ij/docs/guide/). Quantified values were normalized by values for loading controls such as β-actin. For phospho NPM-ALK, quantified values were normalized by the values for total ALK.
A general note: A western blot detects proteins with antibodies after separation by electrophoresis.

The target of another test is T2, IKZF3 (Homo sapiens, UniProt Q96SW2+Q9UKT9).
T2 construct: Immunoblots for endogenous ZF proteins ZFP91 and IKZF3 in MM1.S cells; endogenous in cells; host or cells: JURKAT, MM1.S
T2 sequence (Q9UKT9 whole entry): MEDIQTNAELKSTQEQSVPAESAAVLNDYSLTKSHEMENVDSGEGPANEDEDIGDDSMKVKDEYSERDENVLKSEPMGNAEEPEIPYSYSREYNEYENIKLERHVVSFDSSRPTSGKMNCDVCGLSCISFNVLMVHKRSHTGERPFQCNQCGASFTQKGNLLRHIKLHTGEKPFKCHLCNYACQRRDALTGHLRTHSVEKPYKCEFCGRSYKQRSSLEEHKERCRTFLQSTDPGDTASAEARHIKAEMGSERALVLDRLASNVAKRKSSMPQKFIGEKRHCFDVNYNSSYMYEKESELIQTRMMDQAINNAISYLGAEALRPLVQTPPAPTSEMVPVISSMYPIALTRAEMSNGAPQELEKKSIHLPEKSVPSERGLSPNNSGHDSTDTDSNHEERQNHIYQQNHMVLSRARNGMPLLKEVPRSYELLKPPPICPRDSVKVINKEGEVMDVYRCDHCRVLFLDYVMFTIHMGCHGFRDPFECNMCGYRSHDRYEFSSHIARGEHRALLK
T2 sequence (Q96SW2 whole entry): as the sequence (Q96SW2 whole entry) above
T2 sequence (Q16531 2-1140 partner limits assumed): as the sequence (Q16531 2-1140 partner limits assumed) above
Briefly: Immunoblot of endogenous ZF protein IKZF3. To be noted: for off-target degradation of endogenous IKZF3 (immunoblot): JURKAT cells, dose-dependent; for degradation potency for IKZF3 compared with pomalidomide (immunoblot): MM1.S cells. The procedure: as §1, §2

Another test relates to SU-DH-L1 cells. Kind of test: Cell viability assay (CellTiter-Glo). To be noted: for IC50: SU-DHL-1, SU-DH-L1 cells, 24 hours. The method, then: Cell Viability Assay. SU-DH-L1 cells were seeded in 30 μl of 8000 cells per well in 384-well plates pre-printed with 10 mM of the stock compounds in varying volumes using a Tecan D300e Digital Dispenser (Tecan). After 24 hours, cell viability was determined using a CellTiter-Glo Luminescent Cell Viability Assay (Promega, G7571) following the manufacturer's instructions. Dose-response curve fitting and IC50 quantification were determined with four parameter nonlinear regression analysis using GraphPad Prism v8.4.2.
For orientation: In ATP-based viability assays light output follows the ATP content of the culture.

Setting [2] is: listed as Thalidomide analog with amino group on C5 position.

SMILES strings stand for the structures. Entries after “also recorded” stand apart in the source; their conditions may differ.

On to `Nc1cccc2c1C(=O)N(C1CCC(=O)NC1=O)C2=O` (stereo not shown) [Pomalidomide], for which, in test [1], the “off-target degradation of ZF degron-tagged eGFP” value was “degraded all 12 ZF degrons”. The “off-target profile in global proteomics” value in the test with MOLT4 and KELLY cells is given as “exhibited the commonly reported off-targets”.
As for `CC[C@H](C(=O)N1CCCC[C@H]1C(=O)O[C@H](CCc1ccc(OC)c(OC)c1)c1ccccc1OCC(=O)NCCCCCCOc1cccc2c1C(=O)N(C1CCC(=O)NC1=O)C2=O)c1cc(OC)c(OC)c(OC)c1` (stereo partly shown) [dTAG-13], the “off-target degradation of endogenous ZFP91 (immunoblot)” value on ZFP91 (JURKAT cells) was “off-target degradation”. The “off-target degradation of endogenous IKZF3 (immunoblot)” value at IKZF3 was “off-target degradation”.
`Cc1cc(Nc2ncc(Cl)c(Nc3ccccc3S(=O)(=O)C(C)C)n2)c(OC(C)C)cc1C1CCNCC1` [ceritinib]: in the test with SU-DH-L1 cells (Homo sapiens, Example 1), the IC50 – broadly, the concentration that inhibits the measured activity by half – was found to be 69.3 nM.
Take `Nc1ccc2c(c1)C(=O)N(C1CCC(=O)NC1=O)C2=O` (stereo not shown) [5-aminothalidomide]: the “degradation potency for ZFP91 compared with pomalidomide (immunoblot)” value was “decrease in overall degradation potency” at ZFP91 and “decrease in the potency” on ZFP91 (setting [2]). Moreover, the entries for the “degradation potency for IKZF3 compared with pomalidomide (immunoblot)” value on IKZF3 and on IKZF3 (setting [2]) were “decrease in overall degradation potency” and “decrease in the potency”, respectively.
`Cc1cc(Nc2ncc(Cl)c(Nc3ccccc3S(=O)(=O)C(C)C)n2)c(OC(C)C)cc1C1CCN(CC(=O)NCCNc2cccc3c2C(=O)N(C2CCC(=O)NC2=O)C3=O)CC1` (stereo not shown) [MS4078]: the “off-target degradation of ZF degron-tagged eGFP” value in test [1] is “high level of off-target ZF degradation; also recorded: ZNF517, ZNF654, ZNF276, ZNF653, and PATZ1”. Besides, the “off-target degradation of endogenous ZFP91 (immunoblot)” value is “off-target degradation” on ZFP91 (JURKAT cells); “off-target degradation” at ZFP91 (SU-DHL-1 and H2228 cell lines). The “off-target degradation of endogenous IKZF3 (immunoblot)” value on IKZF3 is “off-target degradation”. Moreover, it took 195 nM to reach half-maximal inhibition in the test with SU-DH-L1 cells (Homo sapiens, Example 1) (IC50). Further, the EC50 (as a rule, the concentration at which the effect is half-maximal) in the test on SU-DH-L1 cells (Homo sapiens, SU-DHL-1 cells, Example 3 numbering) was found to be 195 nM. The “fold lowering of potency relative to ceritinib” value in the test with SU-DH-L1 cells (IC50 ratio, Example 1) came to 2.8 fold.
